# Literature values in patent US20080044452A1, “DRUG DELIVERY SYSTEM FOR TREATMENT OF TRANSITIONAL CELL CARCINOMA” (priority 2006, published 2008).
compound,measurement,value
CO[C@@]12[C@H](COC(N)=O)C3=C(C(=O)C(C)=C(N)C3=O)N1C[C@@H]1N[C@@H]12 [Mitomycin C],stability in acidic urine,not stable in acidic urine
